Results published in patent US5328913A, “Minoxidil analogs as inhibitors of cell proliferation and lysyl hydroxylase” (priority 1992, dated 1994).

Experiments:
lysyl hydroxylase [1] = assay: Lysyl hydroxylase activity in extracts of treated human skin fibroblasts (Example 1, tritium-release assay); type: cell-based; settings: for Lysyl hydroxylase activity (%): 1% ethanol
lysyl hydroxylase [2] = assay: Lysyl hydroxylase activity in extracts of treated human skin fibroblasts (Example 2, pyridine, triazine and N-alkyl analogs); type: cell-based
Protocol: Cells were treated for 72 hr with minoxidil or its triazine analog at the indicated concentrations. The enzyme activities in extracts of treated cells were measured by tritium release assays (Murad and Pinnell, J. Biol. Chem. 262:11,973 (1987)) and are expressed as a percentage of zero-concentration values. PH, prolyl hydroxylase; LH, lysyl hydroxylase.
Cells were treated for 72 hr with various concentrations of minoxidil or its N-alkyl analogs as indicated. The enzyme activity in extracts of treated cells was measured by tritium release assays (Murad and Pinnell, J. Biol. Chem. 262:11,973 (1987)) and is expressed as a percentage of zero-concentration value. The minoxidil curve is reproduced from FIG. 4.
Cultures of human skin fibroblast (1.5×10^6 cells) were seeded onto 100-mm plates and incubated at 37° in Dulbecco's modified Eagle's medium supplemented with 20% calf serum. After 24 hr, the medium was replaced with medium supplemented with 0.5% heat-inactivated dialyzed calf serum. The incubation was continued for an additional 72 hr in the presence of 0.1-2 μM minoxidil analogs dissolved in 0.12N HCl; the final concentration of HCl was 0.0012N or 0.0024N. Cells treated with HCl only served as control. During the last 3 hr of incubation, cells received […] ascorbic acid to ensure complete hydroxylation of the polypeptide precursors of procollagen (Murad et al, J. Invest. Dermatol. 75:404 (1980)). At the end of the incubation period, cells were harvested by trypsinization and disrupted by sonication in a buffered medium (Murad et al, J. Biol. Chem. 262:11,973 (1987)).
Lysyl hydroxylase activity in extracts of treated cells was measured with an underhydroxylated procollagen substrate (Murad et al, J. Biol. Chem. 262:11,973 (1987)), which was prepared by labeling cultures of human skin fibroblasts with L-[4,5-^3 H]lysine in the presence of an iron chelator α,α'-dipyridyl (Murad and Pinnell, Conn. Tiss. Res. 13:181 (1985)). The amount of tritium released was quantitated as ^3 HO after vacuum distillation . Prolyl hydroxylase activity was similarly measured with an underhydroxylated procollagen substrate containing L-[4-^3 H]proline (Murad and Pinnell, J. Biol. Chem. 262:11973 (1987); Murad and Pinnell, Conn. Tiss. Res. 13:181 (1985)). The enzyme activities are based on a unit of soluble cell protein. The protein content of cell extracts was determined by a dye-binding techniques using Bio-Rad reagents (Bradford, Anal. Biochem. 72:248 (1976)).
Cells were treated for 72 hr with 1 mM minoxidil or its
structural analogs as indicated. The enzyme activity in extracts
of treated cells was measured by a tritium-release assay and is
expressed as a percentage of HCl-treated control.

lysyl hydroxylase [3] = assay: Lysyl hydroxylase activity in extracts of treated human skin fibroblasts (Example 1, tritium-release assay); type: cell-based; settings: 0.1 mM; dissolved in HCl; final concentration 0.0012 N; 72 h (Table II footnote a)
human skin fibroblasts = settings: background; cited from earlier work

Nc1cc(N2CCCCC2)nc(N)[n+]1[O-] [Minoxidil]
Lysyl hydroxylase activity (%) (lysyl hydroxylase [1]; 1 nM, 72 h, % of ethanol-treated controls (Table II)): 19-39%
Lysyl hydroxylase activity (%) (lysyl hydroxylase [1]; 1 mM, 72 h, % of solvent-treated controls (Table I)): 28%
decrease of the level of lysyl hydroxylase activity (lysyl hydroxylase [1]; 72 h, 1 mM (Table I text)): 72%
IC50 (lysyl hydroxylase [1]; cultured fibroblasts, 72 h (FIG. 2), read-out: concentration required for 50% inhibition (lysyl hydroxylase)): 118 µM
decrease of the activity of lysyl hydroxylase (lysyl hydroxylase [2]; 1 mM, 72 hr): 73%
Lysyl hydroxylase activity (%) (lysyl hydroxylase [2]; 1 mM, 72 hr, % of HCl-treated control (Table III)): 27%
IC50 (lysyl hydroxylase [2]; 72 hr (FIG. 4, FIG. 5), read-out: concentration giving 50% inhibition (lysyl hydroxylase)): 200 µM
Lysyl hydroxylase activity (%) (lysyl hydroxylase [3]): 45%
inhibition of serum-induced proliferation of fibroblasts in culture (in words) (human skin fibroblasts): capable of inhibiting the serum-induced proliferation of fibroblasts in culture
